The source of these data is US20100299778A1, “NUCLEOTIDE SEQUENCE ENCODING ARTEMISINIC ALDEHYDE DOUBLE BOND REDUCTASE, ARTEMISINIC ALDEHYDE DOUBLE BOND REDUCTASE AND USES THEREOF” (National Research Council of Canada, priority 2007, published 2010).

Assay [1] has as its target T1, recombinant AaDBR2 (artemisinic aldehyde double bond reductase) (Artemisia annua, UniProt C5H429, A226G/L231G/N16K).
T1 construct: This ORF encodes a 415-amino acid protein with a predicted molecular mass of 45.6 kDa; made in house; host or cells: E. coli Rosetta 2(DE3)
Nature of the assay: In vitro enzyme assays of recombinant AaDBR2 with potential substrates, GC/MS analysis. It is filed as biochemical. The note with it: for activity of AaDBR2 on the substance as substrate: tested as potential substrate, with NADPH, GC/MS. The method, then:
The purified recombinant His-tagged AaDBR2 protein was assayed with artemisinic aldehyde, followed by gas chromatography/mass spectrometry analysis. Enzyme reactions were initiated by adding the 0.4 mM artemisinic aldehyde to 300 μL reaction mixture containing 50 mM Tris-HCl (pH 8.0), 1 mM NADPH, 2 mM DTT and 2.0 μg of AaDBR2. Negative controls were carried out with boiled proteins, without NADPH. Reactions were allowed to proceed for 30 minutes at 30° C. with shaking, stopped by adding 15 μL acetic acid and extracted with 100 μL ethyl acetate. The ethyl acetate extracts were pooled and partially evaporated prior to GC-MS analysis. The reaction products were confirmed by comparing GC retention time and MS data with those of synthetic (11R)-dihydroartemisinic aldehyde. For quantification, octadecane was used as an internal standard.
(§1) For comparison of the catalytic properties of AaDBR2 against other substrates, reaction mixtures were pre-warmed to 30° C., and reactions were initiated by addition of AaDBR2. The pH optimum of the purified AaDBR2 was determined to be 7.5 in assay that included one of three 50 mM buffers (MES, HEPES, and Tris-HCl) adjusted to between pH 5.5 and 9.0 in 0.5-unit intervals and 0.5 mM artemisinic aldehyde and 0.48 μg of purified recombinant AaDBR2. Apparent kinetic parameters were determined under conditions that limited conversion to less than 10% as follows. Concentrations of artemisinic aldehyde (6-250 μM, 0.24 μg of AaDBR2, 2 min), 2-cyclohexen-1-one (80-10,000 μM, 0.48 μg of AaDBR2, 10 min), and (+)-carvone (20-5000 μM, 0.48 μg AaDBR2, 10 min) were varied in the presence of 1 mM NADPH. To assess cofactor specificity, concentrations of NADPH (10-640 μM, 0.48 μg of AaDBR2, 2 min) and NADH (0.2-13 mM, 1.9 μg of AaDBR2, 2 min) were varied in the presence of 0.5 mM artemisinic aldehyde. The ethyl acetate extracts from triplicate reaction mixtures were directly analyzed by GC/MS. Octadecane was used as an internal standard to quantify the products formed from the reactions using response factors determined using standards for each enzyme product. Km and kcat values were determined by nonlinear regression analysis using GraphPad™ software (GraphPad™ Software Inc., San Diego, Calif.).

For assay [2], the target named is T1, recombinant AaDBR2 (artemisinic aldehyde double bond reductase). Nature of the assay: Apparent kinetic parameters of purified recombinant AaDBR2. It is filed as biochemical. The protocol:
as §1

Assay [3] concerns Plasmodium falciparum. The note with it: more active than artesunate; cited from earlier work.
Where [4] appears, read: substrate varied in the presence of 1 mM NADPH, 30° C.
Where [5] appears, read: cofactor varied in the presence of 0.5 mM artemisinic aldehyde.

“Also recorded” adds a separate entry of the source.

T1 sequence (C5H429 other isoform, or with tags, fused parts or gaps N16K/A226G/L231G): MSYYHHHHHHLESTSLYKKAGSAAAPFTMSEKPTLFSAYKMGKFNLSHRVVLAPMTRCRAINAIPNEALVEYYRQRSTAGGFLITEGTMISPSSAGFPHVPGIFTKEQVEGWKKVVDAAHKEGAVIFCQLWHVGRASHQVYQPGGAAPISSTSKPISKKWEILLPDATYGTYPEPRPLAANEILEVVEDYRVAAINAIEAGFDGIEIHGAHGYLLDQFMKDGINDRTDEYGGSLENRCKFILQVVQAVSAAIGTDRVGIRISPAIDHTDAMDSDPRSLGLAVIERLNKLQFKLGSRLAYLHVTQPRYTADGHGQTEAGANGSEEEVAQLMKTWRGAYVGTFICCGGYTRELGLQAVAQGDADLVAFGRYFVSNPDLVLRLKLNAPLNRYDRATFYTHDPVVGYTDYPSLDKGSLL

With `O=C1C=CCCC1` [2-cyclohexen-1-one], the “activity of AaDBR2 on the substance as substrate” value (“activity of AaDBR2” for short) in assay [1] was “has activity”. Consider `CCCCCC/C=C/C=O` [2E-nonenal], for which the “rate relative to the rate for artemisinic aldehyde” value in assay [1] (AaDBR2 substrate, FIG. 8) is reported as “about 12%”. In addition, the “activity of AaDBR2” value in assay [1] was “low activity; also recorded: No activity was detected”.

Turning to `C=C(C)[C@H]1CC=C(C)C(=O)C1` [(+)-carvone, (+)-Carvone], in assay [2] (setting [4]), the Km (commonly the concentration of substrate that gives half-maximal velocity) was 650 µM; the turnover number (kcat) (in general, the number of substrate molecules converted per active site and unit of time at saturation) was determined as 0.86 s⁻¹. Also, the “activity of AaDBR2” value in assay [1] was “has activity”.

On to `CC(C)=C1CC[C@@H](C)CC1=O` [(+)-pulegone], for which, in assay [1], the “activity of AaDBR2” value is given as “No activity was detected”. On to `CC1=CC[C@@H]2C[C@H]1C2(C)C` [(+)-α-pinene], for which the “activity of AaDBR2” value in assay [1] is listed as “No activity was detected”. As for `C[C@H]1[C@H](N2CCS(=O)(=O)CC2)O[C@@H]2O[C@@]3(C)CC[C@H]4[C@H](C)CC[C@@H]1[C@@]24OO3` [Artemisone], the “activity relative to artesunate” value in assay [3] is reported as 10-30 fold. Turning to `NC(=O)C1=CN([C@@H]2O[C@H](COP(=O)(O)OP(=O)(O)OC[C@H]3O[C@@H](n4cnc5c(N)ncnc54)[C@H](O)[C@@H]3O)[C@@H](O)[C@H]2O)C=CC1` [NADH], in assay [2] (setting [5]), the Km amounted to 770 µM and the kcat came to 1.3 s⁻¹. Moreover, in assay [1] (preliminary experiments), the “enzyme activity in the presence of the cofactor” value is listed as “active”. Turning to `NC(=O)C1=CN([C@@H]2O[C@H](COP(=O)(O)OP(=O)(O)OC[C@H]3O[C@@H](n4cnc5c(N)ncnc54)[C@H](OP(=O)(O)O)[C@@H]3O)[C@@H](O)[C@H]2O)C=CC1` [NADPH], in assay [2] (setting [5]), the Km is 95 µM and the catalytic constant (kcat) is 2.5 s⁻¹. As to `C=C1C(=O)O[C@@]23[C@H]1CC[C@@H](C)[C@@H]2CC[C@@]1(C)O[C@@H]31` [arteannuin B, Arteannuin B], the “activity of AaDBR2” value in assay [1] is recorded as “No activity was detected”. Regarding `C=C(C(=O)O)[C@@H]1CC[C@@H](C)[C@@H]2CCC(C)=C[C@@H]21` [artemisinic acid], the “activity of AaDBR2” value in assay [1] is on record as “No activity was detected”. Same read-out and setting: for `C=C(CO)[C@@H]1CC[C@@H](C)[C@@H]2CCC(C)=C[C@@H]21` [artemisinic alcohol, Artemisinic alcohol] the value was “No activity was detected”. As for `C=C(C=O)[C@@H]1CC[C@@H](C)[C@@H]2CCC(C)=C[C@@H]21` [artemisinic aldehyde], in assay [2] (Table 2 comparison), the “Km lower relative to 2-cyclohexen-1-one and (+)-carvone” value is reported as “more than 30 fold”. Also, in assay [2] (setting [4]), the Michaelis-Menten constant (Km) was 19 µM and the catalytic constant (kcat) was found to be 2.6 s⁻¹. For the same compound, in assay [1], the “activity of AaDBR2” value is “has activity”. `C=C1C(=O)O[C@@H]2O[C@@]3(C)CC[C@H]4[C@H](C)CC[C@@H]1[C@@]24OO3` [artemisitene]: the “activity of AaDBR2” value in assay [1] is reported as “No activity was detected”. Regarding `COc1cc(/C=C/C=O)ccc1O` [coniferyl aldehyde], the “activity of AaDBR2” value in assay [1] is “No activity was detected”. As for `C=C1C(=O)CC2(C(C)C)CC12` (stereo not drawn) [sabinone, Sabinone], the “activity of AaDBR2” value in assay [1] is reported as “No activity was detected”.
